Experimental data from patent US5043336A (priority 1990, dated 1991).
Structures can show the parent of a compound that is named as a salt.

Tests used:
[1] = system: CCRF-CEM cell line (human leukemic cells); assay: CCRF-CEM Cytotoxicity Assay (growth inhibition of human leukemic cells, 72 h); type: cell-based; details: 37° C.; for IC50: Homo sapiens, CCRF-CEM, 72 h, read-out: IC50 (concentration giving 50% growth inhibition)
Protocol: The CEM cells were grown in RPMI 1640 media (MA Bioproducts) at 37° C. in humidified atmospheric conditions of 95% air and 5% carbon dioxide. The cells were grown in static suspension and maintained in log growth phase at a concentration of 3-7×10^5 cells/ml. The cells were dispersed in wells at a concentration of 4.8×10^4 /well. The drug was dissolved in dimethyl sulfoxide or water and was added at different dilutions to the cluster plates (wells). The cluster plates were incubated at 37° C. for 72 hours. After 72 hours the wells were read using a ZBI Coulter particle counter. Table 2 below gives the results of such testing of several compounds represented by Formula I above. In the table, Column 1 gives the name of the compound and Column 2 gives the IC50 (concentration giving 50% growth inhibition) in μg/ml.

pKa (66% DMF) = type: physicochemical
[2] = trial test of the water solubility of the salt; type: physicochemical; details: after adjusting pH to 3.6, before additional 0.5 ml of 2% sulfuric acid
Protocol: All of the 4-desacetyl VLB C-3 N^2 -(hexahydro-2-methyl-7-oxo-1H-azepin-1-yl)carboxhydrazide prepared from Example 6 was dissolved in 50 ml of ethanol. The initial pH of 4.9 was adjusted to 3.6 with 2% sulfuric acid in ethanol. […] This material was evaporated to dryness in vacuo, which yielded 750 mg of the title compounds.

Gardner lymphosarcoma = details: transplanted tumors in mice; cited from earlier work
P1534(J) leukemia = details: transplanted tumors in mice; cited from earlier work
[3] = system: Ridgeway osteogenic sarcoma; details: transplanted tumors in mice; cited from earlier work
[4] = system: experimental malignancies; details: in vivo; cited from earlier work
[5] = in humans; cited from earlier work
[6] = system: vincristine-resistant leukemias; details: in humans; cited from earlier work

Question: With `CC[C@]1(O)C[C@@H]2CN(CCc3c([nH]c4ccccc34)[C@@](C(=O)OC)(c3cc4c(cc3OC)N(C)[C@H]3[C@@](O)(C(=O)NN5C(=O)CCC5C)[C@H](O)[C@]5(CC)C=CCN6CC[C@]43[C@@H]65)C2)C1` (single isomer, unassigned) [4-Desacetyl VLB C-3 N^2 -(2-methyl-5-oxo-1-pyrrolidinyl)carb] [4-Desacetyl VLB C-3 N^2-(2-methyl-5-oxo-1-pyrrolidinyl)carboxhydrazide(Isomer 2) sulfate salt] as the compound, how does the “IC50 (concentration giving 50% growth inhibition)” value ([1]; sulfate salt) read?
Answer: The value was 0.09 µg/mL.

Question: For `CC[C@]1(O)C[C@@H]2CN(CCc3c([nH]c4ccccc34)[C@@](C(=O)OC)(c3cc4c(cc3OC)N(C)[C@H]3[C@@](O)(C(=O)NN5C(=O)CCC5C)[C@H](O)[C@]5(CC)C=CCN6CC[C@]43[C@@H]65)C2)C1` (single isomer, unassigned) [4-Desacetyl VLB C-3 N^2-(2-methyl-5-oxo-1-pyrrolidinyl)carboxhydrazide(Isomer 1) sulfate salt], which IC50 [1] is on record?
Answer: The IC50 was 0.1 µg/mL.

Question: Which IC50 [1] does the source give for `CC[C@]1(O)C[C@@H]2CN(CCc3c([nH]c4ccccc34)[C@@](C(=O)OC)(c3cc4c(cc3OC)N(C)[C@H]3[C@@](O)(C(=O)N5N=C(C)CCCC5=O)[C@H](O)[C@]5(CC)C=CCN6CC[C@]43[C@@H]65)C2)C1` [4-Desacetyl VLB C-3 N^1-(4,5,6,7-tetrahydro-3-methyl-7-oxo-1H-1,2-diazepin-1-yl)carboxhydrazide sulfate salt] here?
Answer: Its IC50 is 0.019 µg/mL.

Question: With `CC[C@]1(O)C[C@@H]2CN(CCc3c([nH]c4ccccc34)[C@@](C(=O)OC)(c3cc4c(cc3OC)N(C)[C@H]3[C@@](O)(C(=O)NNC(C)CCC(=O)O)[C@H](O)[C@]5(CC)C=CCN6CC[C@]43[C@@H]65)C2)C1` (some centres unmarked) [4-Desacetyl VLB C-3 N^2-(3-carboxy-1-methylpropyl)carboxhydrazide] as the compound, how does the pKa (pKa (66% DMF); first value listed) read?
Answer: The pKa was 5.3.

Question: What about the pKa (pKa (66% DMF); second value listed) of the same compound?
Answer: Its pKa is 6.9.

Question: And the pKa (pKa (66% DMF); third value listed)?
Answer: Its pKa is 7.9.

Question: What does the source list for `CC[C@]1(O)C[C@@H]2CN(CCc3c([nH]c4ccccc34)[C@@](C(=O)OC)(c3cc4c(cc3OC)N(C)[C@H]3[C@@](O)(C(=O)NN=C(C)CCCC(=O)O)[C@H](O)[C@]5(CC)C=CCN6CC[C@]43[C@@H]65)C2)C1` [4-Desacetyl VLB C-3 N^2-(4-carboxy-1-methylbutylidene)carboxhydrazide]?
Answer: pKa (pKa (66% DMF); first value listed): 5.1; pKa (pKa (66% DMF); second value listed): 6.6; pKa (pKa (66% DMF); third value listed): 7.7

Question: With `CC[C@]1(O)C[C@@H]2CN(CCc3c([nH]c4ccccc34)[C@@](C(=O)OC)(c3cc4c(cc3OC)N(C)[C@H]3[C@@](O)(C(=O)NN=C(C)CCCCC(=O)O)[C@H](O)[C@]5(CC)C=CCN6CC[C@]43[C@@H]65)C2)C1` [4-Desacetyl VLB C-3 N^2-(5-carboxy-1-methylpentylidene)carboxhydrazide] as the compound, how does the pKa (pKa (66% DMF); first value listed) read?
Answer: Its pKa is 5.3.

Question: And the pKa (pKa (66% DMF); second value listed)?
Answer: Its pKa is 7.

Question: And the pKa (pKa (66% DMF); third value listed)?
Answer: Its pKa is 8.1.

Question: For `CC[C@]1(O)C[C@@H]2CN(CCc3c([nH]c4ccccc34)[C@@](C(=O)OC)(c3cc4c(cc3OC)N(C)[C@H]3[C@@](O)(C(=O)NN5C(=O)CCCCC5C)[C@H](O)[C@]5(CC)C=CCN6CC[C@]43[C@@H]65)C2)C1` (some centres unmarked) [4-Desacetyl VLB C-3 N^2-(hexahydro-2-methyl-7-oxo-1H-azepin-1-yl)carboxhydrazide sulfate salt], which IC50 [1] is on record?
Answer: Its IC50 is 0.0056 µg/mL.

Question: And the “water solubility of the salt” value [2]?
Answer: Its value is “not completely soluble”.

Question: Which “activity against Gardner lymphosarcoma” value (Gardner lymphosarcoma) does the source give for `CC[C@]1(O)C[C@@H]2CN(CCc3c([nH]c4ccccc34)[C@@](C(=O)OC)(c3cc4c(cc3OC)N(C)[C@H]3[C@@](O)(C(=O)NN)[C@H](O)[C@]5(CC)C=CCN6CC[C@]43[C@@H]65)C2)C1` [4-Desacetyl VLB C-3 carboxhydrazide] here?
Answer: Its value is “active”.

Question: What about the “activity against P1534(J) leukemia” value (P1534(J) leukemia) of the same compound?
Answer: Its value is “active”.

Question: And the “activity against Ridgeway osteogenic sarcoma” value [3]?
Answer: Its value is “active”.

Question: For `CCC1(O)CN2CCc3c([nH]c4ccccc34)C(C(=O)OC)(c3cc4c(cc3OC)N(C)C3C(O)(C(=O)OC)CC5(CC)C=CCN6CCC43C65)CC(C2)C1O` (centres unmarked) [4-desacetoxy-3'-hydroxyvinblastine], which “activity in the treatment of experimental malignancies in animals” value (“activity in the treatment” below) [4] is on record?
Answer: Its value is “active”.

Question: With `CC[C@]1(O)C[C@@H]2CN(CCc3c([nH]c4ccccc34)[C@@](C(=O)OC)(c3cc4c(cc3OC)N(C)[C@@H]3[C@]45CCN4CC=C[C@@](CC)(C[C@]3(O)C(=O)OC)[C@H]45)C2)C1` [4-desacetoxyvinblastine] as the compound, how does the “activity in the treatment” value [4] read?
Answer: The value was “active”.

Question: For `CC[C@]1(O)C[C@@H]2CN(CCc3c([nH]c4ccccc34)[C@@](C(=O)OC)(c3cc4c(cc3OC)N(C)[C@H]3[C@@](O)(C(=O)OC)[C@H](OC(C)=O)[C@]5(CC)C=CCN6CC[C@]43[C@@H]65)C2)C1` [VLB, vincaleukoblastine], which “activity in the treatment” value [4] is on record?
Answer: Its value is “active”.

Question: For `CCC1CC2CN(CCc3c([nH]c4ccccc34)C(C(=O)OC)(c3cc4c(cc3OC)N(C)C3C(O)(C(=O)OC)C(OC(C)=O)C5(CC)C=CCN6CCC43C65)C2)C1` (centres unmarked) [deoxy VLB "A"], which “activity in the treatment” value [4] is on record?
Answer: Its value is “active”.

Question: With `CCC1(O)CN2CCc3c([nH]c4ccccc34)C(C(=O)OC)(c3cc4c(cc3OC)N(C)C3C(O)(C(=O)OC)C(OC(C)=O)C5(CC)C=CCN6CCC43C65)CC(O)(C2)C1` (centres unmarked) [leurocolombine] as the compound, how does the “activity in the treatment” value [4] read?
Answer: Its value is “active”.

Question: With `CC[C@]12CN3CCc4c([nH]c5ccccc45)[C@@](C(=O)OC)(c4cc5c(cc4OC)N(C=O)[C@H]4[C@@](O)(C(=O)OC)[C@H](OC(C)=O)[C@]6(CC)C=CCN7CC[C@]54[C@@H]76)C[C@@H](C3)[C@H]1O2` [leuroformine] as the compound, how does the “activity in the treatment” value [4] read?
Answer: Its value is “active”.

Question: For `CC[C@@]1(O)C[C@@H]2CN(CCc3c([nH]c4ccccc34)[C@@](C(=O)OC)(c3cc4c(cc3OC)N(C)[C@H]3[C@@](O)(C(=O)OC)[C@H](OC(C)=O)[C@]5(CC)C=CCN6CC[C@]43[C@@H]65)C2)C1` [leurosidine], which “activity in the treatment” value [4] is on record?
Answer: The value was “active”.

Question: With `CC[C@]12CN3CCc4c([nH]c5ccccc45)[C@@](C(=O)OC)(c4cc5c(cc4OC)N(C)[C@H]4[C@@](O)(C(=O)OC)[C@H](OC(C)=O)[C@]6(CC)C=CCN7CC[C@]54[C@@H]76)C[C@H](C3)[C@H]1O2` [leurosine] as the compound, how does the “activity in the treatment” value [4] read?
Answer: Its value is “active”.

Question: Which “activity in the treatment” value [4] does the source give for `CCC1(O)CN2CCc3c([nH]c4ccccc34)C(C(=O)OC)(c3cc4c(cc3OC)N(C)C3C(O)(C(=O)OC)C(OC(C)=O)C5(CC)C=CCN6CCC43C65)CC(C2)C1O` (centres unmarked) [vincadioline] here?
Answer: Its value is “active”.

Question: With `CC[C@]1(O)C[C@H]2CN(CCc3c([nH]c4ccccc34)[C@@](C(=O)OC)(c3cc4c(cc3OC)N(C=O)[C@H]3[C@@](O)(C(=O)OC)[C@H](OC(C)=O)[C@]5(CC)C=CCN6CC[C@]43[C@@H]65)C2)C1` [vincristine] as the compound, how does the “activity in the treatment” value [4] read?
Answer: Its value is “active”.

Question: What does the source list for `CC[C@]1(O)C[C@@H]2CN(CCc3c([nH]c4ccccc34)[C@@](C(=O)OC)(c3cc4c(cc3OC)N(C)[C@H]3[C@@](O)(C(N)=O)[C@H](O)[C@]5(CC)C=CCN6CC[C@]43[C@@H]65)C2)C1` [vindesine, 4-desacetyl VLB C-3 carboxamide]?
Answer: neurotoxicity compared with vincristine [5]: less neurotoxicity than does vincristine; effectiveness against vincristine-resistant leukemias [6]: apparently effective
